This is an account of results in ChEMBL document CHEMBL4680187, “Optimization of EphA2 antagonists based on a lithocholic acid core led to the identification of UniPR505, a new 3α-carbamoyloxy derivative with antiangiogenetic properties” (Eur J Med Chem, 2020).

In one experiment the target is Ephrin type-A receptor 7 (Mus musculus, UniProt Q61772). Briefly: Displacement of biotinylated ephrin-A1-Fc from mouse EphA7 Fc preincubated for 1 hr followed by ephrin-A1-FC addition and measured after 4 hrs by ELISA. In general terms: ELISA stands for enzyme-linked immunosorbent assay.
A further experiment concerns the target T1, Ephrin type-B receptor 3 (Mus musculus, UniProt P54754).
T1 sequence (P54754 whole entry): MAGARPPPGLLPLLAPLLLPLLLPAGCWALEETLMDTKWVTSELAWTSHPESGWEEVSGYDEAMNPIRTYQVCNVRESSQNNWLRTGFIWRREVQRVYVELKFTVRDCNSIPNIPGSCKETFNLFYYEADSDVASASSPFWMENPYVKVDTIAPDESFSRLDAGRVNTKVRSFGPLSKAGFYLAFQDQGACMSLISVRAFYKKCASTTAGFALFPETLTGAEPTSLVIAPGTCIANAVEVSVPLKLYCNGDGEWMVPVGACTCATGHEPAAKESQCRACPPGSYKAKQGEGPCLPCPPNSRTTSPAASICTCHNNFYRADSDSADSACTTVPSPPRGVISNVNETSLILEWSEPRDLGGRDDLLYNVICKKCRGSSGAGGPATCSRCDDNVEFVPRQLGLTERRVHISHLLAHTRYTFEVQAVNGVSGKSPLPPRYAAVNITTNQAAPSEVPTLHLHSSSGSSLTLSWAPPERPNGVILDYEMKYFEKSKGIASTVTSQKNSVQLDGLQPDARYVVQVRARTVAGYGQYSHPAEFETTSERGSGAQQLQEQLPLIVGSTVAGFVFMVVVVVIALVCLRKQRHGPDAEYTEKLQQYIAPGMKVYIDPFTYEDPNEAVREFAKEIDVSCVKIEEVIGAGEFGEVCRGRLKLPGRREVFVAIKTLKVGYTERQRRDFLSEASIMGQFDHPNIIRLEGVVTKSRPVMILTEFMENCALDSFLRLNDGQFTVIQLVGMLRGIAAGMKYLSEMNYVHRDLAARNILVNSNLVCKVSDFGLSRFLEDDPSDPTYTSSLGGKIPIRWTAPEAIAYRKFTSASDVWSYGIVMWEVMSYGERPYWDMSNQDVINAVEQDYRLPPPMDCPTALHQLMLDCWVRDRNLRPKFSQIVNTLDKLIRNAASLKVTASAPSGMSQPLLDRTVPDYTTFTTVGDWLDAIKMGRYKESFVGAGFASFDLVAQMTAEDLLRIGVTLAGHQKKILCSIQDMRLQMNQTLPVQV
Briefly: Displacement of biotinylated ephrin-B1-Fc from mouse EphB3 Fc preincubated for 1 hr followed by ephrin-B1-FC addition and measured after 4 hrs by ELISA.

The target in the next experiment is T2, Ephrin type-A receptor 3 (Mus musculus, UniProt P29319).
T2 sequence (P29319 whole entry): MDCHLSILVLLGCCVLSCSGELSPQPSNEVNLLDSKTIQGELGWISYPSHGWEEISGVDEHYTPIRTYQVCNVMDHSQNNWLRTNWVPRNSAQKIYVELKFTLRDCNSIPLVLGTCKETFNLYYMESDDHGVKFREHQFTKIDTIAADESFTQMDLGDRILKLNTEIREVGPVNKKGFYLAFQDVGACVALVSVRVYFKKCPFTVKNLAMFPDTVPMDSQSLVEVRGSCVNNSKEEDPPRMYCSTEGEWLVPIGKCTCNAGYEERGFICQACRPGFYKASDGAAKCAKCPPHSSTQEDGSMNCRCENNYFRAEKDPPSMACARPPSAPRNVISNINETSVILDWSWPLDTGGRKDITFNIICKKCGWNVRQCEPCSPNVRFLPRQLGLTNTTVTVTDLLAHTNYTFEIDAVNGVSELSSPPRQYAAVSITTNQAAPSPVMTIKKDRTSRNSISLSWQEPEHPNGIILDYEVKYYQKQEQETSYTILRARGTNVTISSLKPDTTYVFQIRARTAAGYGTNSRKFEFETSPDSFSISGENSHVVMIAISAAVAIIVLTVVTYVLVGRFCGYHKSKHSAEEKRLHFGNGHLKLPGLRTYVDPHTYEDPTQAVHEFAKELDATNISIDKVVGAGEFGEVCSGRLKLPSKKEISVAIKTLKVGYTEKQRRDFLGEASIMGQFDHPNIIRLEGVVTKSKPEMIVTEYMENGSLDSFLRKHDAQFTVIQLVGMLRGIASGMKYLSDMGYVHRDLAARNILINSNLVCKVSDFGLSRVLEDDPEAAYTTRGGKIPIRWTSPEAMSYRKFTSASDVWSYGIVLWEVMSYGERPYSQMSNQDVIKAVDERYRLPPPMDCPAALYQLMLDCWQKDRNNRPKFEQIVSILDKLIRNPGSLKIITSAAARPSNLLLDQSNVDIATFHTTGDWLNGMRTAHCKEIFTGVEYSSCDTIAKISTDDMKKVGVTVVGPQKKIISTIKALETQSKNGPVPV
Briefly: Displacement of biotinylated ephrin-A1-Fc from mouse EphA3 Fc preincubated for 1 hr followed by ephrin-A1-FC addition and measured after 4 hrs by ELISA.

Bounds are passed on as bounds.

Sequence of Ephrin type-A receptor 7 (Q61772 whole entry): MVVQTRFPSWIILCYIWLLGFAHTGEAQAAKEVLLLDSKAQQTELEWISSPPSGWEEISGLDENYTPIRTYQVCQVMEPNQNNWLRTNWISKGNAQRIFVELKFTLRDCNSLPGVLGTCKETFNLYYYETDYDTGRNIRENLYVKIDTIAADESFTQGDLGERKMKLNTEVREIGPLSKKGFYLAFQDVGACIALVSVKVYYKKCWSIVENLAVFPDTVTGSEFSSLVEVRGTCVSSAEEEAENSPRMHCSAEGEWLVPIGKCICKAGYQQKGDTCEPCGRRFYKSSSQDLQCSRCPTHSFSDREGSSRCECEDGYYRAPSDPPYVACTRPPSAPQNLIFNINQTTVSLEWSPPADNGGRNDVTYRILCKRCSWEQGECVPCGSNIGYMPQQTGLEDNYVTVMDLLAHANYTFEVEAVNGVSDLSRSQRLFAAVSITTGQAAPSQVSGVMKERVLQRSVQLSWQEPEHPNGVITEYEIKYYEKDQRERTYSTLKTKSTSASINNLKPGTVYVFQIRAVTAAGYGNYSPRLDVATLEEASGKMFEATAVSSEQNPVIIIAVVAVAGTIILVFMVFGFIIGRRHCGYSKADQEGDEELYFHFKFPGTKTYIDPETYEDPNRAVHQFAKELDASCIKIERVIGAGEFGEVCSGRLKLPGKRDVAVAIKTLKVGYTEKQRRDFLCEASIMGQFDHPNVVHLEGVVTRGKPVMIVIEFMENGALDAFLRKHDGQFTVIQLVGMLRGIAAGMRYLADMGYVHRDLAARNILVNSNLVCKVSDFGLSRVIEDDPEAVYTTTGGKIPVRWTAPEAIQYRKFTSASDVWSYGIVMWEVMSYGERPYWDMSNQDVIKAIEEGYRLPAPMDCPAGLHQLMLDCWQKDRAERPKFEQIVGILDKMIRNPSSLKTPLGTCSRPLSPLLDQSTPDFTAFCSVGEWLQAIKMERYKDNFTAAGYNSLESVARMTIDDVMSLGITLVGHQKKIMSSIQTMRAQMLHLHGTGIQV

The IC50 is the concentration that inhibits the measured activity by half. Low values mean higher potency, high ones lower potency. `CCNC(=O)O[C@@H]1CC[C@@]2(C)[C@H](CC[C@@H]3[C@@H]2CC[C@]2(C)[C@@H]([C@H](C)CCC(=O)N[C@H](CC(=O)O)Cc4c[nH]c5ccccc45)CC[C@@H]32)C1`: the IC50 is over 30 µM at Ephrin type-A receptor 7, 11 µM at Ephrin type-B receptor 3 and 4.5 µM on Ephrin type-A receptor 3.
